Results on 15 compounds are retold here after patent US20210355107A1, “MULTI-SUBSTITUTED PYRIDONE DERIVATIVES AND MEDICAL USE THEREOF” (Beijing Yuezhikangtai Biomedicines Co., Ltd., priority 2018, published 2021).

For orientation: IC50 means the midpoint of a concentration-inhibition curve.

One assay deals with EBC-1 cells. In words: EBC-1 cell proliferation, CellTiter-Glo Luminescent Cell Viability Assay. Format: cell-based. Conditions: Homo sapiens, 72 h incubation, read-out: IC50 (nM) against EBC-1 cells. The method, then: Test Example 3: Inhibitory Activity of Compounds disclosed herein against EBC-1 Cells
Test method: the inhibitory activity of the compounds against EBC-1 cell proliferation was evaluated using CellTiter-Glo® Luminescent Cell Viability Assay Kit (Promega).
Test procedures: when thawing EBC-1 cells, the cell cryopreservation tube was shaken rapidly in a water bath at 37° C. to thaw the cells in 1 min. The cell suspension after thawing was mixed with RPMI1640 culture medium containing 10% FBS and centrifuged for 5 min at 1000 rpm, and the supernatant was discarded. The cell pellet was suspended in 5 mL of complete culture medium. The suspension was placed in a cell culture flask with a bottom area of 25 cm^2, and cultured in a cell incubator at 37° C./95% humidity/5% CO2. Cell passage was performed when cell confluence reached about 80%. When the cells were passaged, the original cell suspension was directly made uniform by pipetting. 1/6 of the cell suspension was kept, added with 5 mL of new complete culture medium and then made uniform by pipetting. The cell culture flask was then placed in a cell incubator for further culturing. Cell plating was performed when the cell confluence reached about 80% again. With reference to the method for cell passage, 1/6 cell suspension was kept for further culturing when the cells were plated, and the remaining 5/6 of cell suspension was placed in a 15 mL centrifuge tube. Cell viability was detected by trypan blue exclusion using an IC1000 cell counter (Countstar) to ensure that cell viability was above 90%. Cell suspension at a density of 3.33×10^4 viable cells/mL was prepared using complete culture medium, and 90 μL of the cell suspension was added into 96-well cell culture plates, so that the cell density in the cell culture plates (day 0 plate and test compound plate) was 3000 viable cells/well. A control group that contains no cell or compound but only complete culture medium and a control group that contains no compound but cells were set. The cell plates were incubated overnight in a cell incubator. […] 10 μL of the above solution was added into a corresponding cell culture plate to ensure that the initial concentration of the compound was 10 μM, the dilution factor of adjacent concentration was 3.16, and the DMSO content in the cell culture plate was 0.1%. The cell plates were then incubated in the cell incubator for 72 h. During detection, CellTiter-Glo reagent (namely CellTiter-Glo® […] cell viability test reagent, Promega, Cat. No. G7572, Lot. No. 0000310975) was melted, and the cell plate was equilibrated at room temperature for 30 min. The cell plate was added with the CellTiter-Glo reagent at 100 μL per well, and then shaken on a QB-9001 microporous quick shaker (Kylin-Bell) for 5 min to fully lyse the cells. The cell plate was left to stand at room temperature for 20 min to stabilize luminescence signals, and the luminescence value of each well was scanned by a Spectramax M3 multi-functional microplate reader (Molecular Devices) at full wavelength.
Test samples: example compounds of the present invention and cabozantinib (positive control compound).
Data analysis: cell viability was calculated for compounds at various concentrations using the following formula:
Cell viability(%)=(Lumtest compound−Lumculture solution control)/(Lumcell control−Lumculture solution control)×100%,
where Lum refers to the luminescence value of each well of the test compound plate read by the multi-functional microplate reader.
The data were analyzed using GraphPad Prism 7.0 software, fitted with nonlinear S-curve regression to give dose-response curves, and IC50 values were calculated therefrom.

The target in a further assay is T1, kinase c-MET (Homo sapiens, UniProt P08581).
T1 construct: purchased Carna 08-151
Description: Mobility shift assay, inhibitory activity against kinase c-MET. Format: biochemical. Conditions: ATP at Km (35 μM), average of two independent experiments. The method, then: (§1) In this test, mobility shift assay was used to test the inhibitory activity of compounds when ATP concentrations correspond to the Km of the kinases.
(§2) The concentration of test compound was 10-fold diluted from an initial concentration of 10 μM. The test result (IC50) was the average of two independent experiments.
(§3) For example, a compound at an initial concentration of 10 μM was adjusted to 500 μM with 100% DMSO, then serially diluted for 10 concentrations, and then subjected to 10-fold dilution with the buffer to prepare a diluted compound intermediate containing 10% DMSO, 5 μL of which was transferred to the 384-well plate.
(§4) 10 μL of the two enzyme solutions each was added to the 384-well plate and co-incubated with the compound for 10-15 min at room temperature.
(§5) 10 μL of the diluted substrate was added to the 384-well plate to initiate the reaction, which lasts for 1 h at 28° C.
(§6) 5) The conversion rate was read by Caliper Reader (Perkin Elmer) and the inhibition rate was calculated as the average of two tests.
(§7) 6) IC50 values were fitted with XL-fit software.

For a further assay, the target named is T2, kinase Axl (Homo sapiens, UniProt P30530).
T2 construct: purchased Carna 08-107
T2 sequence (P30530 473-894 limits assumed): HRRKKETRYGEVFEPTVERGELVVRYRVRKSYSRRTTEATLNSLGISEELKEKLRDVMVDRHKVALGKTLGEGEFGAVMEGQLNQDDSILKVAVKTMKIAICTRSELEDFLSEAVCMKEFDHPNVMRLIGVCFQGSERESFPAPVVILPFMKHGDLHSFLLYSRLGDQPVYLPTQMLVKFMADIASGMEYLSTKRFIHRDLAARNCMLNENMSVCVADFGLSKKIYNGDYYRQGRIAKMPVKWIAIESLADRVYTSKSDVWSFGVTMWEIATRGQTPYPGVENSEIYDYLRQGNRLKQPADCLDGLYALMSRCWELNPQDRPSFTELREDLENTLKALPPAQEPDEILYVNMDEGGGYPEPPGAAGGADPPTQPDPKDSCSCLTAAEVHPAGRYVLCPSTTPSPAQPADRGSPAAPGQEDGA
In words: Mobility shift assay, inhibitory activity against kinase Axl. Format: biochemical. Conditions: ATP at Km (81 μM), average of two independent experiments. The method, then:
as §1, §2, §3, §4, §5, §6, §7

T1 sequence (P08581 956-1390 limits assumed): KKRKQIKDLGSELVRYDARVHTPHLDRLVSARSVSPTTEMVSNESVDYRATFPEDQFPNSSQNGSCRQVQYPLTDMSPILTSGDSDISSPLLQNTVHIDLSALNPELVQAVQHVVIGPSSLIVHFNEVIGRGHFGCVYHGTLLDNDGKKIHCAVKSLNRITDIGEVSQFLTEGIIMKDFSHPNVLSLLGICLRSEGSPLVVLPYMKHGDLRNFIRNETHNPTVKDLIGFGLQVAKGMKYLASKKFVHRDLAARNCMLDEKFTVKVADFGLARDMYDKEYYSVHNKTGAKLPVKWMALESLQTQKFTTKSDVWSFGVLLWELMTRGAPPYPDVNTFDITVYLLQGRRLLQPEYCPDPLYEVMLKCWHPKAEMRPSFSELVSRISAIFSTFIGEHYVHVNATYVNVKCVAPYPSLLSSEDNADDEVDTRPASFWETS

As to `COc1cc2nccc(Oc3ccc(NC(=O)C4(C(=O)Nc5ccc(F)cc5)CC4)cc3)c2cc1OC` [Cabozantinib, cabozantinib, reference compound], in the assay on EBC-1 cells, the IC50 was 37 nM.

For `CC(C)n1cc(C(=O)Nc2ccc(-c3cc(-c4cnn(C5CCOCC5)c4)cnc3N)c(F)c2)c(=O)c(-c2ccc(F)cc2)c1C#N` [Example 5, N-(4-(2-amino-5-(1-(tetrahydro-2H-pyran-4-yl)-1H-pyrazol-4-yl)-pyridin-3-yl)-3-fluorophenyl)-6-cyano-5-(4-fluorophenyl)-1-isopropyl-4-oxo-1,4-dihydro-pyridine-3-carboxamide], the half-maximal inhibitory concentration (IC50) came to 38 nM at kinase c-MET and 2.6 nM at kinase Axl.

Take `N#Cc1c(-c2ccc(F)cc2)c(=O)c(C(=O)Nc2ccc(-c3cc(-c4cnn(C5CCNCC5)c4)cnc3N)c(F)c2)cn1C1CCC1` [Example 8, N-(4-(2-amino-5-(1-(piperidin-4-yl)-1H-pyrazol-4-yl)pyridin-3-yl)-3-fluorophenyl)-6-cyano-5-(4-fluorophenyl)-1-cyclobutyl-4-oxo-1,4-dihydropyridine-3-carboxamide]: the IC50 at kinase c-MET stood at 17 nM; on kinase Axl, 1.1 nM.

As to `N#Cc1c(-c2ccc(F)cc2)c(=O)c(C(=O)Nc2ccc(-c3cc(-c4cnn(C5CCNCC5)c4)cnc3N)c(F)c2)cn1C1CC1` [Example 11, N-(4-(2-amino-5-(1-(piperidin-4-yl)-1H-pyrazol-4-yl)pyridin-3-yl)-3-fluorophenyl)-6-cyano-5-(4-fluorophenyl)-1-cyclopropyl-4-oxo-1,4-dihydropyridine-3-carboxamide], the concentration for half-maximal inhibition (IC50) in the assay with EBC-1 cells was 91 nM; on kinase c-MET it was 10 nM; on kinase Axl, 0.95 nM.

With `N#Cc1c(C2CC2)cc(C(=O)Nc2ccc(-c3cc(-c4cnn(C5CCNCC5)c4)cnc3N)c(F)c2)c(=O)n1-c1ccc(F)cc1` [Example 12, N-(4-(2-amino-5-(1-(piperidin-4-yl)-1H-pyrazol-4-yl)pyridin-3-yl)-3-fluorophenyl)-6-cyano-5-cyclopropyl-1-(4-fluorophenyl)-2-oxo-1,2-dihydropyridine-3-carboxamide], the results for the half-maximal inhibitory concentration (IC50) in the assay with EBC-1 cells, at kinase c-MET and at kinase Axl were 98 nM, 23 nM and 2.1 nM, respectively.

With `CCn1cc(-c2cnc(N)c(-c3ccc(NC(=O)c4cc(C5CC5)c(C#N)n(-c5ccc(F)cc5)c4=O)cc3F)c2)cn1` [Example 14, N-(4-(2-amino-5-(1-ethyl-1H-pyrazol-4-yl)pyridin-3-yl)-3-fluorophenyl)-6-cyano-5-cyclopropyl-1-(4-fluorophenyl)-2-oxo-1,2-dihydropyridine-3-carboxamide], the IC50 at kinase c-MET turned out to be 82 nM; at kinase Axl, 12 nM.

As to `Cn1cc(-c2cnc(N)c(-c3ccc(NC(=O)c4cc(C5CC5)c(C#N)n(-c5ccc(F)cc5)c4=O)cc3F)c2)cn1` [Example 15, N-(4-(2-amino-5-(1-methyl-1H-pyrazol-4-yl)pyridin-3-yl)-3-fluorophenyl)-6-cyano-5-cyclopropyl-1-(4-fluorophenyl)-2-oxo-1,2-dihydropyridine-3-carboxamide], the results for the 50% inhibitory concentration (IC50) with EBC-1 cells, at kinase c-MET and at kinase Axl were 190 nM, 20 nM and 6.6 nM, respectively.

Take `N#Cc1c(C2CC2)cc(C(=O)Nc2ccc(-c3cc(-c4cnn(C5CCOCC5)c4)cnc3N)c(F)c2)c(=O)n1-c1ccc(F)cc1` [Example 16, N-(4-(2-amino-5-(1-(tetrahydro-2H-pyran-4-yl)-1H-pyrazol-4-yl)pyridin-3-yl)-3-fluorophenyl)-6-cyano-5-cyclopropyl-1-(4-fluorophenyl)-2-oxo-1,2-dihydro-pyridine-3-carboxamide]: the results for the concentration for half-maximal inhibition (IC50) on kinase c-MET and on kinase Axl were 143 nM and 9.8 nM, respectively.

Consider `C=C(C)c1cc(C(=O)Nc2ccc(-c3cc(-c4cnn(C5CCNCC5)c4)cnc3N)c(F)c2)c(=O)n(-c2ccc(F)cc2)c1C#N` [Example 17, N-(4-(2-amino-5-(1-(piperidin-4-yl)-1H-pyrazol-4-yl)pyridin-3-yl)-3-fluorophenyl)-6-cyano-1-(4-fluorophenyl)-2-oxo-5-(prop-1-en-2-yl)-1,2-dihydropyridine-3-carboxamide], for which the figures for the IC50 on kinase c-MET and on kinase Axl were 23 nM and 1.8 nM, respectively.

Regarding `COc1cc2nccc(Oc3ccc(NC(=O)c4cn(C5CC5)c(C#N)c(-c5ccc(F)cc5)c4=O)cc3F)c2cc1OC` [Example 22, 6-cyano-N-(4-((6,7-dimethoxyquinolin-4-yl)oxy)-3-fluoro-phenyl)-5-(4-fluorophenyl)-1-cyclopropyl-4-oxo-1,4-dihydropyridine-3-carboxamide], the values for the IC50 in the assay on EBC-1 cells and at kinase Axl were 84 nM and 5.9 nM, respectively.

In the case of `COc1cc2nccc(Oc3ccc(NC(=O)c4cn(C5CCC5)c(C#N)c(-c5ccc(F)cc5)c4=O)cc3F)c2cc1OC` [Example 23, 6-cyano-N-(4-((6,7-dimethoxyquinolin-4-yl)oxy)-3-fluoro-phenyl)-5-(4-fluorophenyl)-1-cyclobutyl-4-oxo-1,4-dihydropyridine-3-carboxamide], the half-maximal inhibitory concentration (IC50) with EBC-1 cells was found to be 74 nM.

For the compound `COc1cc2nccc(Oc3ccc(NC(=O)c4cn(C(C)C)c(C#N)c(-c5ccc(F)cc5)c4=O)cc3F)c2cc1C#N` [Example 25, 6-cyano-N-(4-((6-cyano-7-methoxyquinolin-4-yl)oxy)-3-fluoro-phenyl)-5-(4-fluorophenyl)-1-isopropyl-4-oxo-1,4-dihydropyridine-3-carboxamide], the IC50 in the assay on EBC-1 cells is 115 nM.

Regarding `COCc1c(C)cc(C(=O)Nc2ccc(Oc3ccnc4cc(OC)c(OC)cc34)c(F)c2)c(=O)n1-c1ccc(F)cc1` [Example 28, 5-methyl-N-(4-((6,7-dimethoxyquinolin-4-yl)oxy)-3-fluoro-phenyl)-1-(4-fluorophenyl)-6-(methoxymethyl)-2-oxo-1,2-dihydropyridine-3-carboxamide], the IC50 at kinase c-MET stood at 21 nM; on kinase Axl, 1 nM.

For `COc1cc2nccc(Oc3ccc(NC(=O)c4cc(C)c(C#N)n(-c5ccc(F)cc5)c4=O)cc3F)c2cc1OC` [Example 29A, 6-cyano-N-(4-((6,7-dimethoxyquinolin-4-yl)oxy)-3-fluoro-phenyl)-1-(4-fluorophenyl)-5-methyl-2-oxo-1,2-dihydropyridine-3-carboxamide], the values for the concentration for half-maximal inhibition (IC50) with EBC-1 cells and on kinase Axl were 82.7 nM and 3.1 nM, respectively.

`COc1cc2nccc(Oc3ccc(NC(=O)c4cc(Br)c(O)n(-c5ccc(F)cc5)c4=O)cc3F)c2cc1OC` [Example 29B, 5-bromo-N-(4-((6,7-dimethoxyquinolin-4-yl)oxy)-3-fluorophenyl)-1-(4-fluorophenyl)-6-hydroxy-2-oxo-1,2-dihydropyridine-3-carboxamide]: the IC50 at kinase c-MET was found to be 30 nM; at kinase Axl, 3.9 nM.
